Experimental data published in US20130252813A1, “Herbicidal Compositions for Tolerant or Resistant Sugar Beet Crops” (Bayer CropScience AG, priority 1998, published 2013).

Key:
Assay type in all cases: in vivo
transgenic sugar beet [1] = assay: Damage to transgenic sugar beet (field trial, Table 5); conditions: application in the 3-5-leaf stage
Description: (§1) Transgenic sugar beet plants with resistance to one or more herbicides (A) were grown together with typical weed plants in the open in 2×5 m plots under natural field conditions; alternatively, the weed population established naturally while the sugar beet plants grew. Treatment with the compositions according to the invention and, for control purposes, with separate application of the active ingredients of the components alone, was carried out under standard conditions with a plot sprayer at an application rate of 200-300 liters of water per hectare in parallel trials in accordance with the scheme of Table 1, i.e. pre-sowing/pre-emergence, […] or post-emergence at the early, medium or late stage.
(§2) At 2, 4, 6 and 8 week intervals after application, the herbicidal activity of the active ingredients or active ingredient mixtures were scored visually by comparing the treated plots with untreated control plots. Damage and development of all aerial plant organs was recorded. The scoring was done using a percentage scale (100% activity=all plants dead; 50% activity=50% of the plants and green plant organs dead; 0% activity=no discernible effect=like control plot). The score values of in each case 4 plots were averaged.

Avena fatua = assay: Herbicidal action and selectivity in sugar beet crop (field trial, Table 5); conditions: application in the 3-5-leaf stage, scoring 4 weeks after application
Description: as §1, §2

Galium aparine [2] = assay: Herbicidal action (field trial, Table 7); conditions: application in the 4-5-leaf stage, scoring 26 days after application
Description: as §1, §2

transgenic sugar beet [3] = assay: Damage to transgenic sugar beet - field trial (Table 2); conditions: application in 2-4-leaf stage
Description: as §1, §2

Setaria viridis [4] = assay: Herbicidal action in sugar beet - field trial (Table 2); conditions: application in 2-4-leaf stage, scoring 3 weeks after application
Description: as §1
(§3) […] Damage and development of all aerial plant organs was recorded. The scoring was done using a percentage scale (100% activity=all plants dead; 50% activity=50% of the plants and green plant organs dead; 0% activity=no discernible effect=like control plot). The score values of in each case 4 plots were averaged.

transgenic sugar beet [5] = assay: Damage to transgenic sugar beet (greenhouse experiment, Table 3); parameters: scale not given here; conditions: greenhouse Table 3, application in the 4-5-leaf stage
Galium aparine [6] = assay: Herbicidal action in sugar beet crop (greenhouse experiment, Table 3); conditions: application in the 4-5-leaf stage, scoring 3 weeks after application
From the text: Seeds or rhizomes of monocotyledonous and dicotyledonous weeds are placed in sandy loam soil in cardboard pots, covered with soil and grown in the greenhouse under good growth conditions. […] The compositions according to the
Invention, which are formulated as wettable powders or as emulsion concentrates, are sprayed at various dosages onto the green plant organs at an application rate of 600 to 800 l of water per ha (converted). After the experimental plants have remained in the greenhouse for approx. 3 to 4 weeks under optimal growth conditions, the effect of the preparations is scored visually in comparison with untreated controls. The compositions according to the invention also have a good herbicidal activity against a broad spectrum of economically Important grass weeds and broad-leaved weeds when applied post-emergence.

Amaranthus retroflexus = assay: Herbicidal action (field trial, sequential treatment, Table 8); conditions: dose 3500 g A.S./ha pre-emergence; scorings 22 days after application
Description: as §1, §3

Setaria viridis [7] = assay: as above; conditions: dose 3500 g A.S./ha pre-emergence; scorings 22 days after application
Description: as §1, §3

transgenic sugar beet [8] = assay: Damage to transgenic sugar beet (field trial, Table 4); conditions: application in 3-leaf stage
Description: as §1, §2

Echinochloa crus-galli = assay: Herbicidal action and selectivity in sugar beet crop (field trial, Table 4); conditions: application in 3-leaf stage, scoring 4 weeks after application
Description: as §1, §2

CCOC(=O)C(C)Oc1ccc(Oc2nc3ccc(Cl)cc3o2)cc1 (racemic) [(B3.2), fenoxaprop-ethyl (rac.)]
Damage to transgenic sugar beet (transgenic sugar beet [1]; dose 15 g A.S./ha): 0
Damage to transgenic sugar beet (transgenic sugar beet [1]; dose 30 g A.S./ha): 0
Damage to transgenic sugar beet (transgenic sugar beet [1]; dose 60 g A.S./ha): 0
Herbicidal action in % against Avena fatua (Avena fatua; dose 15 g A.S./ha): 20%
Herbicidal action in % against Avena fatua (Avena fatua; dose 30 g A.S./ha): 60%
Herbicidal action in % against Avena fatua (Avena fatua; dose 60 g A.S./ha): 85%

CC(C)N.O=C(O)CNCP(=O)(O)O [(A2.2), monoisopropylammonlum salt of glyphosate]
Herbicidal action in % against Galium aparine (Galium aparine [2]; dose 125 g A.S./ha): 10%
Herbicidal action in % against Galium aparine (Galium aparine [2]; dose 250 g A.S./ha): 40%
Herbicidal action in % against Galium aparine (Galium aparine [2]; dose 500 g A.S./ha): 60%
Herbicidal action in % against Galium aparine (Galium aparine [2]; dose 1000 g A.S./ha): 85%

Cc1cccc(S(=O)(=O)NC(=O)Nc2nc(OCC(F)(F)F)nc(N(C)C)n2)c1C(=O)O [(B1.3)]
Damage to transgenic sugar beet (transgenic sugar beet [3]; dose 8 g A.S./ha): 0
Damage to transgenic sugar beet (transgenic sugar beet [3]; dose 17 g A.S./ha): 0
Herbicidal action in % against Setaria viridis (Setaria viridis [4]; dose 8 g A.S./ha): 0%
Herbicidal action in % against Setaria viridis (Setaria viridis [4]; dose 17 g A.S./ha): 20%

Cc1nnc(-c2ccccc2)c(=O)n1N [(B1.4), 4-amino-4,5-dihydro-3-methyl-6-phenyl-1,2,4-triazin-5-one]
Damage to transgenic sugar beet (transgenic sugar beet [5]; dose 750 g A.S./ha): 0
Damage to transgenic sugar beet (transgenic sugar beet [5]; dose 1500 g A.S./ha): 0
Damage to transgenic sugar beet (transgenic sugar beet [5]; dose 3000 g A.S./ha): 0
Herbicidal action in % against Galium aparine (Galium aparine [6]; dose 750 g A.S./ha): 5%
Herbicidal action in % against Galium aparine (Galium aparine [6]; dose 1500 g A.S./ha): 5%
Herbicidal action in % against Galium aparine (Galium aparine [6]; dose 3000 g A.S./ha): 5%
Herbicidal action in % against Amaranthus retroflexus (Amaranthus retroflexus): 73%
Herbicidal action in % against Setaria viridis (Setaria viridis [7]): 20%

COC(=O)Nc1cccc(NC(=O)Oc2cccc(C)c2)c1 [(B2.2), 3-methylphenyl N-[3-(methoxycarbonylamino)phenyl]carbamate]
Damage to transgenic sugar beet (transgenic sugar beet [5]; dose 500 g A.S./ha): 0
Damage to transgenic sugar beet (transgenic sugar beet [5]; dose 1000 g A.S./ha): 0
Damage to transgenic sugar beet (transgenic sugar beet [5]; dose 2000 g A.S./ha): 0
Herbicidal action in % against Galium aparine (Galium aparine [2]; dose 500 g A.S./ha): 20%
Herbicidal action in % against Galium aparine (Galium aparine [2]; dose 1000 g A.S./ha): 30%
Herbicidal action in % against Galium aparine (Galium aparine [2]; dose 2000 g A.S./ha): 30%
Herbicidal action in % against Galium aparine (Galium aparine [6]; dose 500 g A.S./ha): 20%
Herbicidal action in % against Galium aparine (Galium aparine [6]; dose 1000 g A.S./ha): 30%
Herbicidal action in % against Galium aparine (Galium aparine [6]; dose 2000 g A.S./ha): 30%

O=C(O)c1nc(Cl)ccc1Cl [(B2.4), 3,6-dichloropyridine-2-carboxylic acid]
Damage to transgenic sugar beet (transgenic sugar beet [5]; dose 50 g A.S./ha): 0
Damage to transgenic sugar beet (transgenic sugar beet [5]; dose 100 g A.S./ha): 0
Damage to transgenic sugar beet (transgenic sugar beet [5]; dose 200 g A.S./ha): 0
Herbicidal action in % against Galium aparine (Galium aparine [6]; dose 50 g A.S./ha): 5%
Herbicidal action in % against Galium aparine (Galium aparine [6]; dose 100 g A.S./ha): 35%
Herbicidal action in % against Galium aparine (Galium aparine [6]; dose 200 g A.S./ha): 45%

CCC/C(=N\OCC)C1=C(O)CC(CC(C)SCC)CC1=O (stereo not shown) [(B4.1), (E,Z)-2-(1-ethoxyimino-butyl)-5-[2-(ethylthio)propyl]-3-hydroxycyclohex-2-enone]
Damage to transgenic sugar beet (transgenic sugar beet [8]; dose 105 g A.S./ha): 0
Damage to transgenic sugar beet (transgenic sugar beet [8]; dose 210 g A.S./ha): 0
Damage to transgenic sugar beet (transgenic sugar beet [8]; dose 315 g A.S./ha): 0
Herbicidal action in % against Echinochloa crus-galli (Echinochloa crus-galli; dose 105 g A.S./ha): 35%
Herbicidal action in % against Echinochloa crus-galli (Echinochloa crus-galli; dose 210 g A.S./ha): 73%
Herbicidal action in % against Echinochloa crus-galli (Echinochloa crus-galli; dose 315 g A.S./ha): 85%

CCCC(=NOCC)C1=C(O)CC(C2CCCSC2)CC1=O (stereo not shown) [(B4.2), 2-(1-ethoxyiminobutyl)-3-hydroxy-5-thian-3-ylcyclohex-2-enone]
Damage to transgenic sugar beet (transgenic sugar beet [8]; dose 62.5 g A.S./ha): 0
Damage to transgenic sugar beet (transgenic sugar beet [8]; dose 125 g A.S./ha): 0
Damage to transgenic sugar beet (transgenic sugar beet [8]; dose 250 g A.S./ha): 0
Herbicidal action in % against Echinochloa crus-galli (Echinochloa crus-galli; dose 62.5 g A.S./ha): 45%
Herbicidal action in % against Echinochloa crus-galli (Echinochloa crus-galli; dose 125 g A.S./ha): 70%
Herbicidal action in % against Echinochloa crus-galli (Echinochloa crus-galli; dose 250 g A.S./ha): 93%
